Test results taken from patent publication US7704986B2, “Vitamin D3 analogues for the prevention and treatment of bone disorders” (K.U. Leuven Research and Development, priority 2004, dated 2010).
“And” between values parts separate entries of the source, which are not always exact repeats. Identical values can stand only once.

Assays:
vitamin D receptor (VDR) = target: T1, vitamin D receptor (VDR) (Sus scrofa, UniProt A3RGC1); assay: Affinity for vitamin D receptor: competition with [3H]1α,25(OH)2D3; type: binding; details: pig intestinal mucosa supernatant, 4° C. 20 hours; 1α,25(OH)2D3 = 100%
T1 construct: high speed supernatant from intestinal mucosa homogenates obtained from normal pigs; from tissue; host or cells: pig intestinal mucosa (high speed supernatant of homogenate)
T1 sequence (A3RGC1 1-427): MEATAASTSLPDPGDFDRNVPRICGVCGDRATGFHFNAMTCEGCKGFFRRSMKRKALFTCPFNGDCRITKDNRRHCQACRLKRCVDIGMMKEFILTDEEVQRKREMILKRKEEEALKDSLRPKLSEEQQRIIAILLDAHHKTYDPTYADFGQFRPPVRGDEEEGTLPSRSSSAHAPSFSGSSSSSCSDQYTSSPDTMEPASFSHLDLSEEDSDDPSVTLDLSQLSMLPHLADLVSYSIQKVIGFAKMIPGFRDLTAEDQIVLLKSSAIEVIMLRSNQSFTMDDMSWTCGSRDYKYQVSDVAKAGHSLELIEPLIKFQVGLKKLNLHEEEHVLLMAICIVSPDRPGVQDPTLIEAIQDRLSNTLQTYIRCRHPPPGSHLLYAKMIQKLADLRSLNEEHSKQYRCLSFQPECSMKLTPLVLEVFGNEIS
Method: The methods used herein to evaluate the binding properties of vitamin D analogues are state of the art techniques used for steroid hormone (including vitamin D) binding assays. […] Incubation was performed at 4° C. for 20 hours and phase separation was obtained by addition of dextran-coated charcoal.

[1] = tested on: SHAM or OVX operated C3H mice; assay: Ovariectomized mice model for primary prevention of osteoporosis; type: in vivo; details: 0.5 μg/kg i.p.
Method: Twelve-week-old C3H mice were randomly divided into four groups (9-13 mice/group). Two groups of mice were SHAM-operated (SHAM) and two groups were ovariectomized (OVX). Three days after the surgical procedure the SHAM and OVX mice were injected with MV2 intraperitoneally at 0.5 μg/kg/2days (4 times per week) or vehicle (arachis oil). The mice were treated for 8 weeks. At the beginning (before the first injection) of the experiment, bone mineral density (BMD) and bone mineral content (BMC) were determined by dual-energy X-ray absorptiometry (hereinafter referred as DEXA) and serum calcium levels were determined by a microcolorimetric assay. The animals were weighted regularly during the experimental period.
At the end of the experiment serum calcium levels, BMD and BMC were again measured. Trabecular and cortical bone mineral content (BMC) and bone mineral density (BMD) and the geometry of the femur were assessed by a Stratex XCT densitometer (pQCT). Femur calcium content was measured in HCl-dissolved bone ash (obtained by heating for 24 hours in an oven at 100° C.), using a microcolorimetric assay. […] Statistical analysis was performed with the software program NCSS (NCSS, Kaysville, Utah, USA). ANOVA analyses followed bye Fisher's least significant (LSD)-multiple comparison tests were carried out to detect significant differences, p<0.05 was accepted as significant.

[2] = DEXA, OVX mice, 8 weeks, increase (↑)
[3] = DEXA, SHAM mice, 8 weeks, increase (↑)
[4] = calculated from pQCT femur, OVX mice, 8 weeks, increase (↑)
[5] = calculated from pQCT femur, SHAM mice, 8 weeks, increase (↑), * not significant
[6] = pQCT femur, OVX mice, 8 weeks, increase (↑)
[7] = pQCT femur, SHAM mice, 8 weeks, increase (↑)

VDR (relative affinity) (vitamin D receptor (VDR)): 50%
serum calcium levels (no hypercalcemic effects) ([1]; end of 8 weeks): below 11.5 mg/dl
SMILES: C[C@H](CC#CC(O)(C(F)(F)F)C(F)(F)F)[C@@]1(C)CC[C@@H](/C=C/C=C2C[C@@H](O)C[C@H](O)C2)C1(C)C [MV2, (1R,3R)-5-((E)-3-((1S,3R)-3-((1R)-6,6,6-trifluoro-5-hydroxy-1-methyl-5-trifluoromethyl-3-hexynyl)-2,2,3-trimethylcyclopentyl)-2-propenylidene)cyclohexane-1,3-diol]
body weight during treatment ([1]; 8 weeks): no animals lost weight
BMC total body, OVX + analogue vs. OVX + vehicle (= 100%) in % [1, 2]: 19% and 19 ↑ %
BMD spine, OVX + analogue vs. OVX + vehicle (= 100%) in % [1, 2]: 22% and 22 ↑ %
BMD total body, OVX + analogue vs. OVX + vehicle (= 100%) in % [1, 2]: 9% and 9 ↑ %
BMC total body, SHAM + analogue vs. SHAM + vehicle (= 100%) in % [1, 3]: 16% and 16 ↑ %
BMD spine, SHAM + analogue vs. SHAM + vehicle (= 100%) in % [1, 3]: 11% and 11 ↑ %
BMD total body, SHAM + analogue vs. SHAM + vehicle (= 100%) in % [1, 3]: 9% and 9 ↑ %
increase in calcium content in femur, OVX treated animals compared to control animals ([1]; OVX mice, 8 weeks): 14%
increase in calcium content in femur, SHAM treated animals compared to control animals ([1]; SHAM mice, 8 weeks): 12%
Moment of inertia, OVX analogue versus OVX vehicle (=100%) in % [1, 4]: 12 ↑ %
Moment of resistance, OVX analogue versus OVX vehicle (=100%) in % [1, 4]: 8 ↑ %
Moment of inertia, SHAM analogue versus SHAM vehicle (=100%) in % [1, 5]: 6 ↑* %
Moment of resistance, SHAM analogue versus SHAM vehicle (=100%) in % [1, 5]: 3 ↑* %
Endosteal circumference, OVX analogue versus OVX vehicle (=100%) in % ([1]; pQCT femur, OVX mice, 8 weeks, decrease (↓), * not significant): 2 ↓* %
Cortical BMC, OVX analogue versus OVX vehicle (=100%) in % [1, 6]: 11 ↑ %
Cortical BMD, OVX analogue versus OVX vehicle (=100%) in % [1, 6]: 2 ↑ %
Cortical area, OVX analogue versus OVX vehicle (=100%) in % [1, 6]: 9 ↑ %
Cortical thickness, OVX analogue versus OVX vehicle (=100%) in % [1, 6]: 8 ↑ %
Periosteal circumference, OVX analogue versus OVX vehicle (=100%) in % [1, 6]: 3% and 3 ↑ %
Trabecular BMC, OVX analogue versus OVX vehicle (=100%) in % [1, 6]: 69 ↑ %
Trabecular BMD, OVX analogue versus OVX vehicle (=100%) in % [1, 6]: 57 ↑ %
Trabecular area, OVX analogue versus OVX vehicle (=100%) in % [1, 6]: 8 ↑ %
Endosteal circumference, SHAM analogue versus SHAM vehicle (=100%) in % ([1]; pQCT femur, SHAM mice, 8 weeks, decrease (↓), * not significant): 4 ↓* %
Cortical BMC, SHAM analogue versus SHAM vehicle (=100%) in % [1, 7]: 7 ↑ %
Cortical BMD, SHAM analogue versus SHAM vehicle (=100%) in % [1, 7]: 1 ↑ %
Cortical area, SHAM analogue versus SHAM vehicle (=100%) in % [1, 7]: 6 ↑ %
Cortical thickness, SHAM analogue versus SHAM vehicle (=100%) in % [1, 7]: 6 ↑ %
Trabecular BMC, SHAM analogue versus SHAM vehicle (=100%) in % [1, 7]: 83 ↑ %
Trabecular BMD, SHAM analogue versus SHAM vehicle (=100%) in % [1, 7]: 74 ↑ %
Trabecular area, SHAM analogue versus SHAM vehicle (=100%) in % [1, 7]: 7 ↑ %
Periosteal circumference, SHAM analogue versus SHAM vehicle (=100%) in % ([1]; pQCT femur, SHAM mice, 8 weeks, increase (↑), * not significant): 1 ↑* %
